Test results: ChEMBL document CHEMBL5042474, “Structure-Guided Discovery of Potent and Selective DYRK1A Inhibitors” (J Med Chem, 2021)

Columns and labels:
A2780 [1] = test: Antitumor activity against human A2780 cells xenografted in Balb/c mouse assessed as inhibition of tumor growth at 4.75 mg/kg, po bid for 14 days relative to control; assay type: functional; details: 336 h, time 14 day, read-out: TGI
A2780 [2] = test: Antitumor activity against human A2780 cells xenografted in BALB/c […] mouse assessed as reduction in DYRK1A autophosphorylation of S520 residue at 75 mg/kg, po measured after 2 hrs by western blotting analysis relative to control; assay type: functional; parameters: scale not given: the % may be the effect or the level left
A2780 [3] = test: Antitumour activity against human A2780 cells xenografted in Balb/c mouse assessed as tumour volume T/C at 37.5 mg/kg, po bid for 14 days relative to control; details: time 14 day
[4] = Toxicity in Balb/c nude mouse xenografted with human A2780 cells assessed as decrease in body weight at 4.75 mg/kg, po bid for 14 days relative to control; assay type: organism-based; parameters: scale not given: the % may be the effect or the level left; details: in vivo, 336 h, time 14 day
A2780 [5] = test: Antitumour activity against human A2780 cells xenografted in BALB/c nu/nu mouse assessed as reduction in DYRK1A autophosphorylation of S520 residue at 9.375 mg/kg, po measured after 6 hrs by western blotting analysis relative to control; assay type: functional; parameters: scale not given: the % may be the effect or the level left
[6] = target: Dual specificity protein kinase CLK4 (Homo sapiens) (UniProt Q9HAZ1); test: Residual activity of CLK4 (unknown origin) at 10 nM using Ulight-MBP as substrate and ATP as co-substrate incubated for 40 mins and measured after 1 hr by TR-FRET assay relative to control; details: time 100.0 min
A2780 [7] = test: Antitumor activity against human A2780 cells xenografted in Balb/c mouse assessed as inhibition of tumor growth at 9.5 mg/kg, po bid for 14 days relative to control; assay type: functional; details: 336 h, time 14 day, read-out: TGI
hERG (KCNH2) = hERG (KCNH2) (Homo sapiens, UniProt Q12809); test: Inhibition of hERG at 10 uM by patch clamp method relative to control; assay type: toxicity
A2780 [8] = test: Antitumor activity against human A2780 cells xenografted in BALB/c nu/nu mouse assessed as reduction in DYRK1A autophosphorylation of S520 residue at 18.75 mg/kg, po measured after 2 hrs by western blotting analysis relative to control; assay type: functional; parameters: scale not given: the % may be the effect or the level left
[9] = target: Homeodomain-interacting protein kinase 1 (Homo sapiens) (UniProt Q86Z02); test: Residual activity of HIPK1 (unknown origin) at 10 nM using Ulight-MBP as substrate and ATP as co-substrate incubated for 40 mins and measured after 1 hr by TR-FRET assay relative to control; details: time 100.0 min
[10] = target: T1, Dual specificity tyrosine-phosphorylation-regulated kinase 2 (Homo sapiens, UniProt Q92630); test: Inhibition of DYRK2 (unknown origin) using Ulight-MBP as substrate and ATP as co-substrate incubated for 40 mins and measured after 1 hr by TR-FRET assay
T1 sequence (Q92630 whole entry): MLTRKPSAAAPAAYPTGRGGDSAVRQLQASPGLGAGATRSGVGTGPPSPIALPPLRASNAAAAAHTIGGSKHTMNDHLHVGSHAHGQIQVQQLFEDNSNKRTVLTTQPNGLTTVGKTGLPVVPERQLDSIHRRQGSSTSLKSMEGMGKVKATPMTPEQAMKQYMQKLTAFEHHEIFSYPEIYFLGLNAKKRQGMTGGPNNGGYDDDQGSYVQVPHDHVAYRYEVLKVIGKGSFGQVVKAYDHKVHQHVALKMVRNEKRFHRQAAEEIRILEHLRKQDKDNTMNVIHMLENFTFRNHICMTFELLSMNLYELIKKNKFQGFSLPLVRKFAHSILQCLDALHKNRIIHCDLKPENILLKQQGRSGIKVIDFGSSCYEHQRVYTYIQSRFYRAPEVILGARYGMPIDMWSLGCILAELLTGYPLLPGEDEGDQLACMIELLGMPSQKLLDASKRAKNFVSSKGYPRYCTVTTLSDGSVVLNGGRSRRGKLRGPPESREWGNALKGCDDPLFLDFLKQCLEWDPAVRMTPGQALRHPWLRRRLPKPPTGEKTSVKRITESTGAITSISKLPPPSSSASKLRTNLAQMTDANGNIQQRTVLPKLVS

A2780 [11] = test: Antitumor activity against human A2780 cells xenografted in Balb/c mouse assessed as inhibition of tumor growth at 18.75 mg/kg, po bid for 14 days relative to control; assay type: functional; details: 336 h, time 14 day, read-out: TGI
A2780 [12] = test: Antitumor activity against human A2780 cells xenografted in BALB/c nu/nu mouse assessed as reduction in DYRK1A autophosphorylation of S520 residue at 4.687 mg/kg, po measured after 2 hrs by western blotting analysis relative to control; assay type: functional; parameters: scale not given: the % may be the effect or the level left
RS4-11 [13] = test: Antitumor activity against human RS4-11 cells xenografted in BALB/c nu/nu mouse assessed as reduction in DYRK1A autophosphorylation of S520 residue at 12.5 mg/kg, po measured after 2 hrs by western blotting analysis relative to control; assay type: functional; parameters: scale not given: the % may be the effect or the level left
C-33-A = test: cells; details: Homo sapiens
A2780 [14] = test: cells; details: Homo sapiens
[15] = target: T2, Dual specificity tyrosine-phosphorylation-regulated kinase 2 (Homo sapiens) (UniProt Q92630); test: Residual activity of DYRK2 (unknown origin) at 10 nM using Ulight-MBP as substrate and ATP as co-substrate incubated for 40 mins and measured after 1 hr by TR-FRET assay relative to control; details: time 100.0 min
T2 sequence (whole entry): T1 sequence (Q92630 whole entry)

[16] = target: Dual specificity tyrosine-phosphorylation-regulated kinase 1A (Homo sapiens, UniProt Q13627); test: Residual activity of DYRK1A (unknown origin) at 10 nM using Ulight-MBP as substrate and ATP as co-substrate incubated for 40 mins and measured after 1 hr by TR-FRET assay relative to control; details: time 100.0 min
[17] = Toxicity in Balb/c nude mouse xenografted with human A2780 cells assessed as decrease in body weight at 9.5 mg/kg, po bid for 14 days relative to control; assay type: organism-based; parameters: scale not given: the % may be the effect or the level left; details: in vivo, 336 h, time 14 day
RS4-11 [18] = test: Antitumor activity against human RS4-11 cells xenografted in BALB/c nu/nu mouse assessed as reduction in DYRK1A autophosphorylation of S520 residue at 25 mg/kg, po measured after 2 hrs by western blotting analysis relative to control; assay type: functional; parameters: scale not given: the % may be the effect or the level left
[19] = target: Ribosomal protein S6 kinase alpha-4 (Homo sapiens) (UniProt O75676); test: Residual activity of RPS6KA4 (unknown origin) at 10 nM using Ulight-MBP as substrate and ATP as co-substrate incubated for 40 mins and measured after 1 hr by TR-FRET assay relative to control; details: time 100.0 min
A2780 [20] = test: Antitumour activity against human A2780 cells xenografted in mouse assessed as reduction in DYRK1A autophosphorylation of S520 residue at 4.687 mg/kg, po meausred after 6 hrs by western blotting analysis relative to control; assay type: functional; parameters: scale not given: the % may be the effect or the level left

hERG (KCNH2), sequence (Q12809 whole entry): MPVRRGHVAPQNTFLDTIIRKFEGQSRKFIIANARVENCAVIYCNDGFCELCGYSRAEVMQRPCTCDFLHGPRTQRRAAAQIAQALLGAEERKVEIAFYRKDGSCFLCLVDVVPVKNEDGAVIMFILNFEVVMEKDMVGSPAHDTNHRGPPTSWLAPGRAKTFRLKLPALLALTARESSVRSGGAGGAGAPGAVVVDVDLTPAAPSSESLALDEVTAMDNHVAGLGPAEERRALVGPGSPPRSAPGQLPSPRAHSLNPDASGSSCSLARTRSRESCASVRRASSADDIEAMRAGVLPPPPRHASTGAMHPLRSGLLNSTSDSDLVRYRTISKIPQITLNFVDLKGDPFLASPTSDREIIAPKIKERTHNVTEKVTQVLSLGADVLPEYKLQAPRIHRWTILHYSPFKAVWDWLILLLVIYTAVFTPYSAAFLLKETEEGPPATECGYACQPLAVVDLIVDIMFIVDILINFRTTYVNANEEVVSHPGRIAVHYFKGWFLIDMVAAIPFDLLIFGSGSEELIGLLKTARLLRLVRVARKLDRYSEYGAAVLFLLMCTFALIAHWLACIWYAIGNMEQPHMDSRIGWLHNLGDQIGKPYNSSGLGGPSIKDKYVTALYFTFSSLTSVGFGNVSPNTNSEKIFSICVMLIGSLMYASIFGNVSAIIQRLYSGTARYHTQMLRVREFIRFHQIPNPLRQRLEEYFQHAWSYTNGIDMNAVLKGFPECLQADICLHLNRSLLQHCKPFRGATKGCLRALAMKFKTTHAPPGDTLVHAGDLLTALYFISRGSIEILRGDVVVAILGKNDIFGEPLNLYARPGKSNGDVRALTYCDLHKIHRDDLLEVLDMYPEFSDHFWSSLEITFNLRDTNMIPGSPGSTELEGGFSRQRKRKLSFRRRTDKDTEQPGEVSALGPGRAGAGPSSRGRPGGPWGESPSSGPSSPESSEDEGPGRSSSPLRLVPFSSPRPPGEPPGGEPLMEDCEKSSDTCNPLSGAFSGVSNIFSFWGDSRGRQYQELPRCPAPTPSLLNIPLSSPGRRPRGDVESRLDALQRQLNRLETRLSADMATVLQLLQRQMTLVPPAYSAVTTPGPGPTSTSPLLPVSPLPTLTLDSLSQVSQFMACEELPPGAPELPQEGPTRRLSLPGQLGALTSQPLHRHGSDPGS
Dual specificity protein kinase CLK4 (Homo sapiens), sequence (Q9HAZ1 whole entry, looked up): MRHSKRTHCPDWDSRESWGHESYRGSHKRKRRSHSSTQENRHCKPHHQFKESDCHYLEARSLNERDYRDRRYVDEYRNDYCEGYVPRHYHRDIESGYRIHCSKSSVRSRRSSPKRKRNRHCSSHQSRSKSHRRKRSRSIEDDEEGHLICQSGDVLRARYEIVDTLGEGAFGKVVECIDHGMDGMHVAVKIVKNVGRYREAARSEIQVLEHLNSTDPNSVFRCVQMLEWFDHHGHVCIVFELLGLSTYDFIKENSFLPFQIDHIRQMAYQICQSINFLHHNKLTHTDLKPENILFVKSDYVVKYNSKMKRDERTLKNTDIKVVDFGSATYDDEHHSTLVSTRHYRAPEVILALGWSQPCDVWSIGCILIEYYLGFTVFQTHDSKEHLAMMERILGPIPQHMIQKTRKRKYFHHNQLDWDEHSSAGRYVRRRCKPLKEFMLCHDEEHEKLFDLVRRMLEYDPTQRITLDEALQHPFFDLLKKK
Homeodomain-interacting protein kinase 1 (Homo sapiens), sequence (Q86Z02 whole entry, looked up): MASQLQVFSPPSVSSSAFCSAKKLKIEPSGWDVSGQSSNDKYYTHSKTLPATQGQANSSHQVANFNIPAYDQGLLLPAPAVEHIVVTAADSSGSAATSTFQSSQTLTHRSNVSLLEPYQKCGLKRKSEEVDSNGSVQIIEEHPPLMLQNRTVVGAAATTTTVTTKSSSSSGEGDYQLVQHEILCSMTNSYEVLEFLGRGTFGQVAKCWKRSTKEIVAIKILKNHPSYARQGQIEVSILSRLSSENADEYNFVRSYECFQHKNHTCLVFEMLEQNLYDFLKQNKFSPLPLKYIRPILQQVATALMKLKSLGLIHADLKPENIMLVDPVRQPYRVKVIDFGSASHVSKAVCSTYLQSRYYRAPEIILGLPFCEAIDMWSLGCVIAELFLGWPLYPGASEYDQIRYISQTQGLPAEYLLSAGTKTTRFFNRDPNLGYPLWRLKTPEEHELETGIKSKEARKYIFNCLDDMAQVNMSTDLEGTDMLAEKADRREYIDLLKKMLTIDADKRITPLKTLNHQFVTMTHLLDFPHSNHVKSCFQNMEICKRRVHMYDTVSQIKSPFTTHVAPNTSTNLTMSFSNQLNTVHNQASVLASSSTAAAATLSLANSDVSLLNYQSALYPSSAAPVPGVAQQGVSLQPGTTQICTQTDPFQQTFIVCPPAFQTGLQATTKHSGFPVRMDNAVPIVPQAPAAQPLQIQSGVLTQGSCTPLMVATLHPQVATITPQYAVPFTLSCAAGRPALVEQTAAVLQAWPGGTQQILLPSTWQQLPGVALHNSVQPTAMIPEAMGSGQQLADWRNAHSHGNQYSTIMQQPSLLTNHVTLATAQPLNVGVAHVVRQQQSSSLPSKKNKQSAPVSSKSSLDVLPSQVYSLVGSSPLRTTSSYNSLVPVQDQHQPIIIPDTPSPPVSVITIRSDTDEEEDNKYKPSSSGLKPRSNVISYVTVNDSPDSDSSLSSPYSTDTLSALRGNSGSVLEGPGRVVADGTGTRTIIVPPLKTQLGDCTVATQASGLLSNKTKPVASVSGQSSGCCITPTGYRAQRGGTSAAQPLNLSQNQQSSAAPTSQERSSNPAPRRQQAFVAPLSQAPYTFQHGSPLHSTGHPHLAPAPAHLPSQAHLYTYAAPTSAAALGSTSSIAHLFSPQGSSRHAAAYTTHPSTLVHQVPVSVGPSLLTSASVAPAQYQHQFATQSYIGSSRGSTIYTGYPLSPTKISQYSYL
Ribosomal protein S6 kinase alpha-4 (Homo sapiens), sequence (O75676 whole entry, looked up): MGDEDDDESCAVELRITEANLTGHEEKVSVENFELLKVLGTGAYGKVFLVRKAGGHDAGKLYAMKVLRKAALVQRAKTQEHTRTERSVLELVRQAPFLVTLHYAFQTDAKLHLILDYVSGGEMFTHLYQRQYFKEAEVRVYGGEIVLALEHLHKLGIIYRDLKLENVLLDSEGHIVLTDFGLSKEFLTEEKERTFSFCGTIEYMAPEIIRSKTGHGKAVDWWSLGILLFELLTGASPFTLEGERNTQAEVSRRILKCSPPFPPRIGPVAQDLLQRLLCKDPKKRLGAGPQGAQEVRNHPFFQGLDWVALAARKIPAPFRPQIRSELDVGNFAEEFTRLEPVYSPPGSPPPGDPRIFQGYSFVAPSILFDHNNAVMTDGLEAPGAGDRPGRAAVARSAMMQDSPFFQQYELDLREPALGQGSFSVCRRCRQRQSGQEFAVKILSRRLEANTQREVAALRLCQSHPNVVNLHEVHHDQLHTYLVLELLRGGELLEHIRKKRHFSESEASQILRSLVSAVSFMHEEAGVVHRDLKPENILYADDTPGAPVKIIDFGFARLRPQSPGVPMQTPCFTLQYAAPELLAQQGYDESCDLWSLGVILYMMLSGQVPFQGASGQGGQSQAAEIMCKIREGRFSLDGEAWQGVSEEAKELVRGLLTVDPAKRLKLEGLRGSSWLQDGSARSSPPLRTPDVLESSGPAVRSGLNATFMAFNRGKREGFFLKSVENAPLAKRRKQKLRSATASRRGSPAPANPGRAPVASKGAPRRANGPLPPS

- residual activity [6]: 52%
- residual activity [9]: 72%
- IC50 [10]: 3 nM
- IC50 (C-33-A): 157 nM
- IC50 (A2780 [14]): 126 nM
- residual activity [15]: 1.6%
- residual activity [16]: 9.2%
- residual activity [19]: 61%
Structure (SMILES): Cc1nc2ccc(-c3cc(N)nc(N)c3)nc2n1C1CC1
- inhibition in vivo at 4.75 mg/kg (A2780 [1]): 28%
- Activity (A2780 [2]): 80%
- T/C (A2780 [3]): 52%
- Activity [4]: 1.5%
- Activity (A2780 [5]): 10%
- inhibition in vivo at 9.5 mg/kg (A2780 [7]): 28%
- inhibition at 10 µM (hERG (KCNH2)): 52%
- Activity (A2780 [8]): 82%
- inhibition in vivo at 18.75 mg/kg (A2780 [11]): 55%
- Activity (A2780 [12]): 60%
- Activity (RS4-11 [13]): 87%
- Activity [17]: 8.7%
- Activity (RS4-11 [18]): 87%
- Activity (A2780 [20]): 0%
